# Where a SMILES comes first, the peptide text is derived from it. Bridges are numbered along the chain shown (N, C = ends). Where no end group is shown, it is not given here. [ ]: non-standard residue; d: D form. The star is where a group is joined. Ileψ(thiazoline)Cys = CC[C@H](C)[C@H](N)C1=N[C@H](C(=O)*)CS1; dOrn = NCCC[C@@H](N)C(=O)O
# What was measured:
# [1] = system: L. major GLC94 isolate promastigotes; settings: treatments used in man; general statement; cited from earlier work
# recombinant LmPDI = assay: Inhibition of reactivation of scrambled RNase A by recombinant LmPDI (thio-disulfide oxido-reductase activity); assay type: biochemical, Leishmania major; settings: for inhibition of rLmPDI activity: FIG. 12; for concentration at which LmPDI activity is completely inhibited: inhibitors tested at 0.01, 0.1, 0.5 and 2 mM
# Method: (§1) Scrambled RNase A (8 μM) was incubated in a buffer containing 4.5 mM cCMP, 1 mM glutathione GSH, 0.2 mM glutathione disulfide GSSH, 2 mM EDTA and 100 mM of Tris-HCl pH 8 in the presence of bovine serum albumin (BSA) (1.4 μM) as a negative control, bovine protein disulfide-isomerase (1.4 μM) as a positive control, or recombinant LmPDI (1.4 μM) for 30 minutes at 25° C. RNase A reactivation was determined by measuring the RNase A activity at 296 nm every 5 minutes, as described in the literature (Lyles and Gilbert, 1991).
# as §1, with “The scrambled RNase” for “Scrambled RNase”, “mM Tris-HCl,” for “mM of Tris-HCl”, “pH 8,” for “pH 8”, “5 minutes for 30 minutes” for “5 minutes,”
# The experimental conditions for the thio-disulfide oxido-reductase activity inhibition tests for recombinant LmPDI were strictly identical to those described in the paragraph “Reactivation of RNase A in the presence of recombinant LmPDI protein”, except that the reactions were carried out in the presence of 0.01 mM, 0.1 mM, 0.5 mM and 2 mM of the following PDI inhibitors: • bacitracin; • zinc bacitracin; • p-chloromercuribenzoic acid (pCMBA); • tocinoic acid. d) Inhibition of Parasite (L. Major) Growth in a Liquid Medium
# 1—Evaluation of the inhibition of recombinant LmPDI. The detailed technique for analyzing the PDI activity of LmPDI was described in Example 2 and in the Materials and Methods section above. The same technique can be used to evaluate the capacity of certain PDI inhibitors which are known or still to be identified (using a molecular model of LmPDI), by adding different concentrations of potential inhibitors to the reaction volume. The results are expressed as the percentage inhibition compared with the buffer alone. Only molecules with a significant and dose-dependent LmPDI inhibiting activity are retained.
# With the aim of determining whether the different PDI inhibitors described in the literature could inhibit the thio-disulfide oxido-reductase activity of LmPDI, the capacity of these inhibitors to block the enzymatic activity of LmPDI synthesized in E. coli then purified was studied in an in vitro test, at different-concentrations. The inhibitors were: • bacitracin; • zinc bacitracin; • p-chloromercuribenzoic acid (pCMBA); • tocinoic acid.
# Twenty milligrams of RNase A (Amersham.-Pharmacia) was denatured in a buffer composed of 0.15 M dithiothreitol, 6M guanidine HCl and 0.1 M Tris-HCl, pH 8.6 for 18 hours at ambient temperature. The scrambled RNase was then purified on a Sephadex G25 column equilibrated in HCl 0.01 M and quantified by spectrophotometry at 275 nm.
# In a glutathione-based reducing buffer, PDI catalyzes renaturing of scrambled RNase (Gilbert, 1998). Restoration of RNase activity was measured by spectrophotometry in the presence of cytidine 2′-3′-cyclic monophosphate (cCMP) as a substrate. 8 μM of scrambled RNase, alone or in the presence of 1.4 μM of bovine serum albumin (BSA) or 1.4 μM of rLmPDI was mixed in a buffer containing 4.5 mM of cCMP, 1 mM of reduced glutathione (GSH), 200 μM of oxidized glutathione (GSSG), 2 mM EDTA and 100 mM Tris-Cl, pH 8. The reaction was carried out at ambient temperature for 30 minutes. The hydrolysis of cCMP resulting from the renaturing of RNase was recorded by measuring the absorbance at 296 nm every 5 minutes for the half hour of the reaction.
# The activity of the recombinant LmPDI (rLmPDI) was measured in the presence of different concentrations of bacitracin (BAC 0.01 mM-2 mM) and zinc bacitracin (BACZn, 0.01 mM-2 mM).
# [2] = system: L. major GLC94 isolate promastigotes; assay: Evolution of the disease in BALB/c mice infected with L. major GLC94 promastigotes, lesion size; assay type: in vivo
# Description: Sensitive BALB/c mice were infected with 10^6 promastigotes from the GLC94 isolate into the plantar pad and treated or not treated with bacitracin. The treatment was halted 9 weeks after infection (the arrow indicates treatment stoppage).
# The availability of zinc bacitracin, which already forms a weapon in the therapeutic arsenal, has allowed it to be tested on the evolution of infection in the BALB/c mouse with L. major. Mice were infected with promastigotes in the stationary growth phase (10^6 promastigotes per paw) of the GLC94 isolate into the plantar pad of the rear paw and treated with a pomade based on 5 mM or 25 mM of BACZn (prepared in Vaseline). Treatment with the pomade was started 48 hours after injecting the parasites, by dint of one application per day over 5 days of the week. Mice infected in the same manner and treated with Vaseline were used as the control. The lesion size was measured each week.
# [3] = system: L. major parasites in the exponential growth phase; assay: Inhibition of parasite (L. major) growth in a liquid medium by PDI inhibitors; assay type: cell-based, Leishmania major; settings: for growth of Leishmania in a liquid medium (summary statement): no concentration stated, refers to Example 4; for concentration that completely inhibited the growth of L. major in a liquid medium: counted every 24 h over 96 h, FIG. 9 and FIG. 11
# Method: They are growth curves taken over 96 hours, for promastigotes of L major in the presence of 0, 1 mM, 1.5 mM or 2 mM of bacitracin.
# Different concentrations of inhibitors (0 to 5 mM) were used to follow the effect of PDI inhibitors on the multiplication of parasites in vitro. Parasites that had not been treated with inhibitors (T) were selected as a control for these experiments.
# With the aim of determining the effect of bacitracin (BAC), zinc bacitracin (BACZn), p-chloromercuribenzoic acid (PCMBA) and 5,5′-dithiobis(2-nitrobenzoic acid) (DTNB) on the in vitro growth of Leishmanias in a liquid medium, different concentrations of the inhibitors cited above, 0 mM, 0.05 mM, 0.1 mM, 0.2 mM, 0.5 mM, 1 mM, 1.5 mM, 2 mM, 2.5 mM and 5 mM were added to RPMI supplemented with 5% fetal calf serum and containing 2×10^6/ml of parasites in the exponential growth phase. The parasites were incubated at 26° C. and counted every 24 hours over 96 hours. The parasites were counted on Mallassez cells.
# The PDI inhibitors described in paragraph (1—) were tested with the aim of evaluating their capacities to inhibit the in vitro growth of parasites. To this end, different quantities of inhibitors were added to RPMI containing 2×10^6/ml of parasites in the exponential growth phase. The parasites were incubated at 26° C. and counted every 24 hours over 96 hours. The parasites were counted on Mallassez cells.
# GLC94 promastigotes = assay: In vitro growth kinetics of L. major promastigotes in the presence of zinc bacitracin; assay type: cell-based, Leishmania major; settings: FIG. 13
# Method: FIG. 13 illustrates the inhibition of the multiplication of GLC94 promastigotes by zinc bacitracin. The effect of zinc bacitracin (BACZn) on the multiplication of GLC94 promastogotes was determined in vitro. Different concentrations of inhibitor were tested to analyze their effect on the capacity of the parasites to multiply in vitro. The control (C) was constituted by parasites cultivated in a complete medium in the absence of inhibitors.
# To this end, promastigotes from the GLC94 isolate were cultured on a medium based on coagulated rabbit serum for two days. […] Promastigotes cultured in complete medium in the absence of inhibitors were used as the control. Monitoring was by counting the parasites at 48, 72 and 96 hours.
compound,measurement,setting,value
NC[C@@H]1O[C@H](O[C@H]2[C@@H](O)[C@H](O[C@@H]3[C@@H](O)[C@H](N)C[C@H](N)[C@H]3O[C@H]3O[C@H](CO)[C@@H](O)[C@H](O)[C@H]3N)O[C@@H]2CO)[C@H](N)[C@@H](O)[C@@H]1O [paramomycin],effect on the disease induced in the BALB/c mouse,[1],little effect
CNC[C@H](O)[C@@H](O)[C@H](O)[C@H](O)CO.[O]=[Sb](=[O])[OH] [glucantime],effect on the disease induced in the BALB/c mouse,[1],little effect
"tocinoic acid (CYIQNC; not fully specified (bridges); cysteine pairing not given here; UniProt P01178 20-25, looked up, fragment)",effect on the activity of LmPDI,"recombinant LmPDI; FIG. 10, at the concentrations employed (0.01 to 2 mM)",did not appear to have a very great effect
CC[C@H](C)[C@H](N)C1=N[C@H](C(=O)N[C@@H](CC(C)C)C(=O)N[C@H](CCC(=O)O)C(=O)N[C@H](C(=O)N[C@H]2CCCCNC(=O)[C@H](CC(N)=O)NC(=O)[C@@H](CC(=O)O)NC(=O)[C@H](Cc3cnc[nH]3)NC(=O)[C@@H](Cc3ccccc3)NC(=O)[C@H]([C@@H](C)CC)NC(=O)[C@@H](CCCN)NC2=O)[C@@H](C)CC)CS1 [bacitracin] ({Ileψ(thiazoline)Cys}-L[dE]IK[dOrn]I[dF]H[dD]N; lactam 4-C),inhibition of rLmPDI activity,recombinant LmPDI; 0.1 mM,50%
same,inhibition of rLmPDI activity,recombinant LmPDI; 0.5 mM,70%
same,inhibition of rLmPDI activity,recombinant LmPDI; 2 mM,100%
same,concentration at which LmPDI activity is completely inhibited,recombinant LmPDI; FIG. 10,2 mM
same,mice with lesion attenuation,[2]; pomade 5 mM,2 out of 3
same,mice with lesion attenuation,[2]; pomade 25 mM,2 out of 4
same,growth of Leishmania in a liquid medium (summary statement),[3],inhibits the growth
"O=C(O)c1cc[c]([Hg][Cl])cc1 [pCMBA, p-chloromercuribenzoic acid]",concentration at which LmPDI activity is completely inhibited,recombinant LmPDI; FIG. 10,0.01 mM
same,concentration that completely inhibited the growth of L. major in a liquid medium,[3],0.5 mM
zinc bacitracin,inhibition of rLmPDI activity,recombinant LmPDI; 0.1 mM,50%
same,inhibition of rLmPDI activity,recombinant LmPDI; 0.5 mM,70%
same,inhibition of rLmPDI activity,recombinant LmPDI; 2 mM,100%
same,concentration at which LmPDI activity is completely inhibited,recombinant LmPDI; FIG. 10,2 mM
same,growth of parasites,GLC94 promastigotes; 1 mM,no effect
same,growth of parasites,GLC94 promastigotes; 1.5 mM,partially inhibits
same,growth of parasites,GLC94 promastigotes; 2 mM,complete inhibition
same,growth of parasites,GLC94 promastigotes; 5 mM,complete inhibition
same,progress of the disease (lesion size),"[2]; pomade in Vaseline applied locally at the injection site, from 48 h after infection, preliminary, FIG. 14",attenuates the progress of the disease
same,concentration that completely inhibited the growth of L. major in a liquid medium,[3],2 mM
"O=C(O)c1cc(SSc2ccc([N+](=O)[O-])c(C(=O)O)c2)ccc1[N+](=O)[O-] [DTNB, 5,5′-dithiobis(2-nitrobenzoic acid)]",effect on the growth of Leishmanias in a liquid medium,"[3]; in the concentrations used (0 to 5 mM), FIG. 11",did not appear to have a very large effect
"O=S(=O)(O)c1cc[c]([Hg][Cl])cc1 [pCMBS, p-chloromercuribenzene sulfonic acid]",growth of Leishmania in a liquid medium (summary statement),[3],inhibits the growth

# Reference: patent publication US8715697B2, “Genes associated with Leishmania parasite virulence” (priority 2001, dated 2014)
